This is an account of results in ChEMBL document CHEMBL1156087, “Antioxidant reactivity toward nitroxide probes anchored into human serum albumin. A new model for studying antioxidant repairing capacity of protein radicals” (Bioorg Med Chem Lett, 2009).

The structures appear in SMILES notation.

Conditions in all cases: isolated protein; call rule not given here
In data set [1] the target is T1, Albumin (Homo sapiens, UniProt P02768). Briefly: Binding affinity to 45 uM human serum albumin assessed as fluorescence distribution at 2.5 uM. The data set is classed as ADME.
The target of data set [2] is T1, Albumin. Briefly: Binding affinity to 130 uM human serum albumin assessed as fluorescence distribution at 2.5 uM. The data set is classed as ADME.
Data set [3] addresses T1, Albumin. Briefly: Binding affinity to human serum albumin by Benesi-Hildebrand method. The data set is classed as ADME.
The target in data set [4] is T1, Albumin. In words: Binding affinity to human serum albumin by tryptophan fluorescence quenching method. The data set is classed as ADME.
Data set [5] has as its target T1, Albumin. In words: Binding affinity to human serum albumin intensity at 5 uM by fluorescence based drug displacement assay in presence of dansyl amide.
Data set [6] has as its target T1, Albumin. Briefly: Binding affinity to human serum albumin intensity at 5 uM by fluorescence based drug displacement assay in presence of dansyl sarcosine.
Data set [7] addresses T1, Albumin. Briefly: Binding affinity to 15 uM human serum albumin assessed as fluorescence distribution at 2.5 uM. The data set is classed as ADME.

T1 sequence (P02768 whole entry): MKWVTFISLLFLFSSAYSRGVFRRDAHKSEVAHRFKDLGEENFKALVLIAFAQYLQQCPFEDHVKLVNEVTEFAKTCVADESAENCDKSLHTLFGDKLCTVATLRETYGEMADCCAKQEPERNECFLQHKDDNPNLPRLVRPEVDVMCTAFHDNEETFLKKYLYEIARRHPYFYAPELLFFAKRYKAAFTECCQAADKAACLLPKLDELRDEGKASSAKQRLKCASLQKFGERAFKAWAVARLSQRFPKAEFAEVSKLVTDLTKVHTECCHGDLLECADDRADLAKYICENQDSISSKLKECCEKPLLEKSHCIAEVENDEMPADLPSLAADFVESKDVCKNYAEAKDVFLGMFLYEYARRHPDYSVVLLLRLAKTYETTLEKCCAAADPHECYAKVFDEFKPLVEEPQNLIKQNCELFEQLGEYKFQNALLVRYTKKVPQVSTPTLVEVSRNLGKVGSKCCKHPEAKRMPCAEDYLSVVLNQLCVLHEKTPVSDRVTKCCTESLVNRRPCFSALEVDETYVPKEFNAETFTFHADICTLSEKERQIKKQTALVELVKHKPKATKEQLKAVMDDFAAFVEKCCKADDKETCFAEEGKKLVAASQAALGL

Consider `CC1(C)CC(OC(=O)c2cc3cc4c5c(c3oc2=O)CCCN5CCC4)CC(C)(C)N1O`, for which the Activity on Albumin [1] is given as 28.1%; on Albumin [2], 44.6%; on Albumin [5] it was “Active”; at Albumin [6], “Not Active”; on Albumin [7], 2.9%. For the same compound, the Ka on Albumin [3] came out at 4.8 ×10⁴ /M; at Albumin [4], 5 ×10⁴ /M.
At Albumin [4], `Cc1nc2ccccc2c(C(=O)OC2CC(C)(C)N(O)C(C)(C)C2)c1O` gave a Ka of 9 ×10⁴ /M.
